Test results as given in article PMC6459484, “Synthetic surfactin analogues have improved anti-PEDV properties” (PLoS ONE, 2019).
In brackets after ≈: the same amount, converted by molar mass. Square brackets hold non-standard residues; d marks the D form. Peptide text beside a SMILES is read from it. * marks the point of attachment. Palmitoyl = CCCCCCCCCCCCCCCC(=O)*

What was measured:
PEDV CV777 = assay: Plaque reduction assay (anti-PEDV activity); type: cell-based, Porcine epidemic diarrhea virus; details: for Anti-PEDV potency compared with surfactin: plaque reduction assay, result in words
Experimental: Cercopithecus aethiops kidney epithelial cells (Vero, ATCC, CCL-81) were cultured in high glucose DMEM (Gibco, US), supplemented with 10% fetal bovine serum (FBS, GIBCO), at 37 °C in a 5% CO2 humidified atmosphere. Cells were routinely seeded at a density of 2×10^5 /mL in plastic tissue culture flasks (25 cm^2 flasks, Corning, USA) and passaged every 3–4 days. PEDV CV777 was provided by the Jiangsu Academy of Agricultural Sciences (JAAS).
Vero cells were seeded at 2 × 10^5 cells/well in 24-well tissue culture plates and incubated 18–24 h at 37 °C until approximately 95% confluency was reached. 100 PFU of PEDV mixed with an equal volume of SLP in DMEM or DMEM alone were incubated 10 minutes at 37 °C, then added into the wells of the Vero cells and incubated 30 minutes at 4 °C. Cells were washed 3 times with DMEM then overlaid with DMEM/1% agar and incubated 72 hours at 37 °C. The cells were fixed with 4% formaldehyde, then stained with 0.1% crystal violet after the agar overlay was removed. The data are representative of 3 biological replicates and each plaque assay was performed in triplicate and values are expressed as means ± the standard deviation. Curve fitting and EC50 were calculated with GraphPad Prism 6 using the log[inhibitor] vs. response equation.
The SLPs were tested for anti-PEDV activity using a plaque reduction assay. Serial dilutions of SLPs were incubated with an equal volume of PEDV then aliquoted onto precooled cells in 12-well plates. After the virus has adsorbed to the cells at 4 °C, SLPs were washed away. The adsorbed virus particles were then counted by plaque forming assays (Fig 2A). The results were fitted to a sigmoid-curve and plotted Fig 2B. All SLPs have potent anti-PEDV effects above 50 μg/ml, but differences in their anti-PEDV effect.
Fig 2 Anti-PEDV activities of lipopeptides. (A) PEDV was incubated with series concentrations of SLPs for 10 minutes at 37 °C. After washing cells of unadsorbed virus, the remaining infectious particles was detected by plaque assay. (B) Anti-PEDV activity (% remaining PFU) plotted as a function of lipopeptide concentration. The results of three independent experiments are shown as means ± standard deviation. 100% represents plaque counts in the control (no lipopeptide) sample.

porcine RBCs = type: cell-based; details: for CC50 (50% cytotoxicity concentration, hemolysis): red cells of porcine, 1 h
Experimental: Hemolytic activity was measured according to the methods described in Jingdan, with some modifications. Briefly, serial dilutions of SLPs were added to 200 uL of a 1% suspension of porcine RBCs in PBS, followed by incubation for 1 h at 37 °C. Cells were centrifuged at 1000 g for 10 min, then 100 uL of each supernatant was transferred to wells of a 96-well plate. The optical density at 540 nm was measured using a microplate reader (Infinite 200 PRO, Tecan Group Ltd., Switzerland) and % hemolysis was calculated using the formula: Hemolysis(%)=ODS-ODB/ODP-ODB×100% where ODS, ODB, and ODP represent the optical density of the SLP-treated samples, negative control and positive control, respectively. 1% Triton X-100 was used for the positive control. Each sample was run in triplicate.
Fig 3 Hemolytic activity of lipopeptides. (A) The indicated concentration of SLPs were added to a 1% porcine RBC suspension in PBS, followed by incubation for 1 h at 37 °C and centrifugation. Pictures were taken after collecting a portion of the supernatant for quantification of hemolysis. (B) Hemolytic curve. Hemolysis (measured at OD540) is shown as a function of SLP concentration. 100% represents the OD obtained using 0.1% Triton X-100-treated red blood cells.

[1] = Critical micelle concentration by surface tension (ring method); type: physicochemical; details: samples stood 30 min at 22 °C, intersection of two linear regression lines
Experimental: Surface tensions were measured using the ring method. Samples were freshly prepared in a testing flask and allowed to stand for 30 minutes at 22 °C. Surface tension measurements were made using a surface tensiometer (HLD-LST-II, HENLIDA Co., Ltd, China). Linear regressions of the drop and the flat area were performed separately for the surface tension-concentration curve. The concentration at the intersection of the two lines is the critical micelle concentration (CMC).
The CMC was calculated by measuring the surface tension of each SLP over a range of concentrations. […] Linear regressions were performed independently using the data on the descending part of the curve below the CMC and the equilibrium part above the CMC. The intersection of the linear regression lines corresponds to the CMC (Table 3).
Fig 4 Critical micelle concentrations of the SLPs. CMCs were determined for SDS, surfactin, and SLPs by surface tension. The intersection of the two linear regression lines corresponds to the CMC value, (shown by the dotted lines).

[2] = HPLC retention time as measure of hydrophobicity; type: physicochemical; details: used as indicator of total hydrophobicity, SLP1>SLP2>SLP3
Text: The cationic properties of synthetic lipopeptides are thought to be related to their antibacterial and hemolytic activities. […] Cyclic lipopeptides are reported to more readily lyse bacterial membranes than linear or branched lipopeptides. […] It has also been reported that the total hydrophobicity of synthetic lipopeptides is inversely related to hemolytic activity, although this conclusion was from data on only 3 related samples [27]. […] The relative hydrophobicity of SLP1, 2, and 3 is SLP1>SLP2>SLP3, as indicated by their HPLC retention times (17.6, 16.7, and 14.5 min, respectively).

PEDV [3] = assay: Time of addition assay (viral N protein by western blot, viral RNA by qRT-PCR); type: cell-based, Porcine epidemic diarrhea virus; details: Vero cells, 1000 PFU PEDV, harvested 12 hpi, SLP5 50 μg/ml, surfactin 20 μg/ml; for PEDV replication (nucleic acid and protein levels), reagent present throughout the experiment (treatment group 2) or at any stage: DEPE 5 μg/ml, 3 independent experiments; for PEDV replication, treatment group 5: same as group 2 (little replication)
Experimental: Time of addition assay was performed according to the procedures described, with modifications. Confluent Vero cells in 12-well plates were infected with 1000 PFU of PEDV and incubated for 1 hr at 4 °C to synchronize infection. The inoculum was removed and 1 mL of 37 °C DMEM was added to each well, cells were then placed at 37 °C in a humidified incubator. At the indicated time points, SLP5, surfactin, or dielaidoyl-phosphatidylethanolamine (DEPE, AvantiPolarLipids, Alabaster, AL) was added dropwise to cells or virus to a final concentration of 50 μg/ml, 20 μg/ml, or 5 μg/ml and incubated a further 12 hours at 37 °C. Viral nucleic acid and protein levels in the cells were measured by qRT-PCR and western-blot respectively. The data shown is representative of 3 independent experiments.
Total RNA was extracted from cells using TRIzol Reagent (Invitrogen) according to the manufacturer’s instructions. cDNA was generated by reverse transcription using HiScript TM QRT SuperMix for qPCR (Vazyme) according to the manufacturer’s instructions. PEDV nucleic acid levels were assessed by measuring the viral nucleoprotein (N) using qRT-PCR with the TaKaRa SYBR Green qPCR Kit (TaKaRa). Primer sequences were as follows: PEDV-N-F (sense), 5’-[…]-3’; PEDV-N-R (antisense), 5’-[…]-3’; C-sabaeus-GAPDH-F, 5’-[…]-3’; C-sabaeus-GAPDH-R, 5’-[…]-3’. Gene level was calculated using the comparative Ct method and normalized to the endogenous levels of GAPDH.
Boiled cell lysates were subjected to SDS-PAGE then transferred to PVDF membrane (Roche, Basel, Switzerland) using a semi-dry transfer apparatus (GE, Little Chalfont, Buckinghamshire, UK). Membranes were blocked in 5% non-fat milk in TBS containing 0.01% Tween-20 (TBST) then incubated overnight at 4 °C with anti-PEDV N-protein monoclonal antibody (Median Diagnostics, South Korea) diluted in TBST with 1% BSA. Membranes were washed 30 min in TBST followed by incubation for 1 h at RT with 1:5000 HRP goat anti-mouse IgG antibody (ABGENT, San Diego, CA, USA) then thrice washed for 15 min in TBST. Membranes were incubated with ECL reagent (Thermo, Waltham, MA, USA) and imaged using a ChemiDoc™ system (Bio-Rad, Hercules, CA, USA).
Since SLP5 was the most promising surfactin analogue, we chose it for further study. Time of addition assays were performed to determine whether the SLP5 exerts its anti-PEDV effect at the same stage during infection as surfactin. Since surfactin acts directly on virions, the experiment was designed to examine events early in the infection process. Fig 6A summarizes the experimental plan and the eight treatments tested. Briefly, SLP5, surfactin, or DEPE was added to virus alone, cells alone, or to cells and virus together prior to infection, during virus adsorption, during virus invasion (1 h post infection at 37 °C), or during replication (1–12 hpi). Samples were harvested 12 hours after infection, and analyzed to measure cellular levels of viral protein (Fig 6B and 6C) and viral RNA (Fig 6D). […] Other antiviral mechanisms of SLP5 and surfactin cannot be ruled out since PEDV replication is inhibited to different degrees in some of the other treatment groups.
Fig 6 Time-of-addition experiments. (A) Vero cells were treated with SLP5, surfactin, or DEPE at different time points before, during, and after infection. […] (B) The PEDV nucleoprotein was detected by Western-blot, and (C) quantitated by band intensity relative to the internal control, GAPDH. (D) The PEDV genome was detected by qRT-PCR. […]

PEDV [4] = details: cited from earlier work
Text: In summary, we synthesized 10 surfactin analogues and characterized them to identify those with enhanced anti-viral properties. […] SLP5 is therefore a more promising synthetic surfactin analogue. Compared with surfactin, the structure of SLP5 is distinguished by its linear lipopeptide and the additional carboxyl grou ...

[5] = 100 PFU PEDV pre-incubated with lipopeptide 10 min at 37 °C, adsorbed to Vero cells 30 min at 4 °C, washed, agar overlay 72 h, 3 biological replicates each in triplicate, mean ± SD, log[inhibitor] vs. response fit

| Compound | EC50 (PEDV CV777; [5]) [µg/mL] | CC50 (50% cytotoxicity concentration, hemolysis) (porcine RBCs) [µg/mL] | CMC [1] [µg/mL] | HPLC retention time (relative hydrophobicity) [2] [min] | EC50 (PEDV CV777; 72 h) [µg/mL] | Anti-PEDV potency compared with surfactin (PEDV CV777) | PEDV replication (nucleic acid and protein levels), reagent present throughout the experiment (treatment group 2) or at any stage (PEDV [3]) | PEDV replication, treatment group 5 (PEDV [3]) | Protection of piglets from PEDV challenge (PEDV [4]) | Hemolytic activity, result in words (porcine RBCs) |
| --- | --- | --- | --- | --- | --- | --- | --- | --- | --- | --- |
| CCCCCCCCCCCCCCCC(=O)N[C@@H](CCC(=O)O)C(=O)N[C@H](C(=O)N[C@H](CC(C)C)C(=O)N[C@@H](CC(=O)O)C(=O)N[C@H](CC(C)C)C(N)=O)C(C)C [SLP3] (Palmitoyl-EV[dL]D[dL]-NH2) | 16.9 ± 1.6 (≈ 20.5 µM) | 69.7 ± 2.6 (≈ 84.5 µM) | 6.4 | 14.5 | – | – | – | – | – | – |
| CCCCCCCCCCCCCCCC(=O)N[C@@H](CCC(=O)O)C(=O)N[C@H](C(=O)N[C@H](CC(C)C)C(=O)N[C@@H](CC(=O)O)C(=O)N[C@H](CC(C)C)C(=O)N[C@H](C(N)=O)C(C)C)C(C)C [SLP2] (Palmitoyl-EV[dL]D[dL]V-NH2) | – | 33.0 ± 1.6 (≈ 35.7 µM) | 4.2 | 16.7 | 5.3 ± 0.5 (≈ 5.73 µM) | higher potency than surfactin | – | – | – | – |
| Surfactin | 11.4 ± 0.7 | – | 12.1 | – | – | – | little PEDV replication occurs | act directly on the virus | protect piglets from PEDV challenge | – |
| CCCCCCCCCCCCCCCC(=O)N[C@@H](CCC(=O)O)C(=O)N[C@H](C(=O)N[C@H](CC(C)C)C(=O)N[C@@H](C)C(=O)N[C@@H](CC(=O)O)C(=O)N[C@H](CC(C)C)C(=O)N[C@H](C(N)=O)C(C)C)C(C)C [SLP1] (Palmitoyl-EV[dL]AD[dL]V-NH2) | – | 52.6 ± 2.3 (≈ 52.8 µM) | 5.7 | 17.6 | 8.0 ± 0.3 (≈ 8.04 µM) | – | – | – | – | slightly weaker than that of surfactin |
| CCCCCCCCCCCCCCCC(=O)N[C@@H](CCC(=O)O)C(=O)N[C@H](C(=O)N[C@H](CC(C)C)C(=O)N[C@@H](CC(=O)O)C(=O)N[C@H](CC(C)C)C(=O)O)C(C)C [SLP5] (Palmitoyl-EV[dL]D[dL]-OH) | – | 847.2 ± 124.9 (≈ 1030 µM) | 15.0 | – | 16.5 ± 0.6 (≈ 20 µM) | equaled | little PEDV replication occurs | act directly on the virus | – | – |
